Target: T1, threonine dehydrogenase (Tdh) (Escherichia coli, UniProt P07913)
T1 sequence (P07913 1-341): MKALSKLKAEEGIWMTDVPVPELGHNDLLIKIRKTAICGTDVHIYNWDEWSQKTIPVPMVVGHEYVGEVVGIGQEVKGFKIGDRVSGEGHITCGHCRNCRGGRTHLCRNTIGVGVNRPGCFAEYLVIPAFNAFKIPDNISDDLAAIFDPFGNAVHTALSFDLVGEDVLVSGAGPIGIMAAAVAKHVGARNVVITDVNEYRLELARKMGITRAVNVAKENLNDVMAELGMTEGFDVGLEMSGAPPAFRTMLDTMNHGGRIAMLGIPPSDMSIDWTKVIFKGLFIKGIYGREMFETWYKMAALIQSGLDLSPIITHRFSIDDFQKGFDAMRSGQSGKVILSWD
Test: NADH formation at […] nm
Type: biochemical
Settings: Fe(II)-loaded enzyme; 30 mM threonine, 1 mM NAD+, 50 mM Tris-HCl pH 8.4, 25 °C, anaerobic

## C[C@@H](O)[C@H](N)C(=O)O [threonine]
  NADH formation at 340 nm: Tdh oxidizes threonine, with the production of NADH that can be monitored

— PMC3731988 (Molecular microbiology, 2013)
